Source: PubChem BioAssay AID2060340 (Molecular Pharmacology Branch, DTP, NCI, 2025)
Where “and” joins values, the source holds several entries; their conditions need not be identical. Equal values may be shown once. Values belong to the compound of their own block, whether it stands above or below them.

Tested on: 349418-098-R-PDC spheroids, viability, % test/control
Experiment: Anticancer human tumor 349418-098-R-PDC patient-derived lung adenocarcinoma cell line growth inhibition [IpAb]
Details: spheroids with HUVEC and MSC; for viability, T/C: stronger effect = lower value
In short: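 Multi-cell spheroids of 60% tumour cells, 25% HUVEC and 15% MSC in ultra-low-attachment U-bottom wells, treated with agents combined with ipatasertib or abemaciclib. Half-log ranges top out near clinical Cmax, or 10 microM when Cmax is unknown.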

[1] = curve of first compound, second compound 0.1 µM
[2] = curve of first compound, second compound 0.316 µM
[3] = curve of first compound, second compound 1 µM
[4] = curve of first compound, second compound 3.16 µM
[5] = curve of first compound, second compound 10 µM
[6] = second compound 0.1 µM, first compound 0.0316 µM
[7] = second compound 0.1 µM, first compound 0.1 µM
[8] = second compound 0.1 µM, first compound 0.316 µM
[9] = second compound 0.1 µM, first compound 1 µM
[10] = second compound 0.316 µM, first compound 0.0316 µM
[11] = second compound 0.316 µM, first compound 0.1 µM
[12] = second compound 0.316 µM, first compound 0.316 µM
[13] = second compound 0.316 µM, first compound 1 µM
[14] = second compound 1 µM, first compound 0.0316 µM
[15] = second compound 1 µM, first compound 0.1 µM
[16] = second compound 1 µM, first compound 0.316 µM
[17] = second compound 1 µM, first compound 1 µM
[18] = second compound 3.16 µM, first compound 0.0316 µM
[19] = second compound 3.16 µM, first compound 0.1 µM
[20] = second compound 3.16 µM, first compound 0.316 µM
[21] = second compound 3.16 µM, first compound 1 µM
[22] = second compound 10 µM, first compound 0.0316 µM
[23] = second compound 10 µM, first compound 0.1 µM
[24] = second compound 10 µM, first compound 0.316 µM
[25] = second compound 10 µM, first compound 1 µM
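Note: spheroids exposed to compounds for 7 days.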

Compound: CC(=O)c1c(C)c2cnc(Nc3ccc(N4CCNCC4)cn3)nc2n(C2CCCC2)c1=O + CC(C)NCC(C(=O)N1CCN(c2ncnc3c2C(C)CC3O)CC1)c1ccc(Cl)cc1
IC50 [1]: 8.74 nM
IC50 [2]: < 0.949 nM
IC50 [3]: < 0.949 nM
IC50 [4]: < 0.949 nM
IC50 [5]: < 0.949 nM
viability, T/C (second compound 0.1 µM, first compound 0.000949 µM): 76.3%
viability, T/C (second compound 0.1 µM, first compound 0.003 µM): 74.8%
viability, T/C (second compound 0.1 µM, first compound 0.00949 µM): 44%
viability, T/C (second compound 0.1 µM, first compound 0.03 µM): 29.3%
viability, T/C (second compound 0.1 µM, first compound 0.0949 µM): 14.4%
viability, T/C (second compound 0.1 µM, first compound 0.3 µM): 12.1%
viability, T/C (second compound 0.316 µM, first compound 0.000949 µM): 40.5%
viability, T/C (second compound 0.316 µM, first compound 0.003 µM): 43.2%
viability, T/C (second compound 0.316 µM, first compound 0.00949 µM): 23.8%
viability, T/C (second compound 0.316 µM, first compound 0.03 µM): 15.5%
viability, T/C (second compound 0.316 µM, first compound 0.0949 µM): 8.84%
viability, T/C (second compound 0.316 µM, first compound 0.3 µM): 8.96%
viability, T/C (second compound 1 µM, first compound 0.000949 µM): 19.5%
viability, T/C (second compound 1 µM, first compound 0.003 µM): 13.5%
viability, T/C (second compound 1 µM, first compound 0.00949 µM): 9.63%
viability, T/C (second compound 1 µM, first compound 0.03 µM): 7.98%
viability, T/C (second compound 1 µM, first compound 0.0949 µM): 7.69%
viability, T/C (second compound 1 µM, first compound 0.3 µM): 7.53%
viability, T/C (second compound 3.16 µM, first compound 0.000949 µM): 11.4%
viability, T/C (second compound 3.16 µM, first compound 0.003 µM): 9.48%
viability, T/C (second compound 3.16 µM, first compound 0.00949 µM): 8.85%
viability, T/C (second compound 3.16 µM, first compound 0.03 µM): 6.09%
viability, T/C (second compound 3.16 µM, first compound 0.0949 µM): 6.21%
viability, T/C (second compound 3.16 µM, first compound 0.3 µM): 7.07%
viability, T/C (second compound 10 µM, first compound 0.000949 µM): 7.89%
viability, T/C (second compound 10 µM, first compound 0.003 µM): 6.96%
viability, T/C (second compound 10 µM, first compound 0.00949 µM): 5.33%
viability, T/C (second compound 10 µM, first compound 0.03 µM): 5.56%
viability, T/C (second compound 10 µM, first compound 0.0949 µM): 5.75%
viability, T/C (second compound 10 µM, first compound 0.3 µM): 5.61%

IC50 (curve of compound): 50.9 nM and 53.6 nM
Compound: CC(C)(C)c1cnc(CSc2cnc(NC(=O)C3CCNCC3)s2)o1
viability, T/C (compound 0.00949 µM): 105% and 108%
viability, T/C (compound 0.03 µM): 90.5% and 85.3%
viability, T/C (compound 0.0949 µM): 2.46% and 15.2%
viability, T/C (compound 0.3 µM): 2.23% and 2.41%
viability, T/C (compound 0.949 µM): 3.07% and 3.11%
viability, T/C (compound 3 µM): 2.08% and 2.15%

Compound: CCCS(=O)(=O)Nc1ccc(F)c(C(=O)c2c[nH]c3ncc(-c4ccc(Cl)cc4)cc23)c1F + CC(C)NCC(C(=O)N1CCN(c2ncnc3c2C(C)CC3O)CC1)c1ccc(Cl)cc1
IC50 [1]: 106 nM
IC50 [2]: < 31.6 nM
IC50 [3]: < 31.6 nM
IC50 [4]: < 31.6 nM
IC50 [5]: < 31.6 nM
viability, T/C [6]: 56.4%
viability, T/C [7]: 48.1%
viability, T/C [8]: 42.4%
viability, T/C [9]: 38.4%
viability, T/C (second compound 0.1 µM, first compound 3.16 µM): 33.5%
viability, T/C (second compound 0.1 µM, first compound 10 µM): 15.7%
viability, T/C [10]: 32.9%
viability, T/C [11]: 29.4%
viability, T/C [12]: 29.8%
viability, T/C [13]: 21.7%
viability, T/C (second compound 0.316 µM, first compound 3.16 µM): 21.4%
viability, T/C (second compound 0.316 µM, first compound 10 µM): 11.2%
viability, T/C [14]: 19.1%
viability, T/C [15]: 16.6%
viability, T/C [16]: 11.9%
viability, T/C [17]: 10.1%
viability, T/C (second compound 1 µM, first compound 3.16 µM): 11%
viability, T/C (second compound 1 µM, first compound 10 µM): 7.7%
viability, T/C [18]: 9.81%
viability, T/C [19]: 7.85%
viability, T/C [20]: 7.36%
viability, T/C [21]: 6.91%
viability, T/C (second compound 3.16 µM, first compound 3.16 µM): 7.18%
viability, T/C (second compound 3.16 µM, first compound 10 µM): 6.15%
viability, T/C [22]: 6.76%
viability, T/C [23]: 6.33%
viability, T/C [24]: 5.46%
viability, T/C [25]: 5.62%
viability, T/C (second compound 10 µM, first compound 3.16 µM): 5.53%
viability, T/C (second compound 10 µM, first compound 10 µM): 4.47%

Compound: COc1c(OCCCN2CCOCC2)ccc2c3n(c(=NC(=O)c4cnc(N)nc4)nc12)CCN3 + CC(C)NCC(C(=O)N1CCN(c2ncnc3c2C(C)CC3O)CC1)c1ccc(Cl)cc1
IC50 [1]: 3.97 nM
IC50 [2]: < 3.16 nM
IC50 [3]: < 3.16 nM
IC50 [4]: < 3.16 nM
IC50 [5]: < 3.16 nM
viability, T/C (second compound 0.1 µM, first compound 0.00316 µM): 55.1%
viability, T/C (second compound 0.1 µM, first compound 0.01 µM): 29.2%
viability, T/C [6]: 9.62%
viability, T/C [7]: 5.79%
viability, T/C [8]: 5.45%
viability, T/C [9]: 5.99%
viability, T/C (second compound 0.316 µM, first compound 0.00316 µM): 35%
viability, T/C (second compound 0.316 µM, first compound 0.01 µM): 21.2%
viability, T/C [10]: 8.11%
viability, T/C [11]: 6.04%
viability, T/C [12]: 5.28%
viability, T/C [13]: 5.13%
viability, T/C (second compound 1 µM, first compound 0.00316 µM): 16.6%
viability, T/C (second compound 1 µM, first compound 0.01 µM): 9.17%
viability, T/C [14]: 7.4%
viability, T/C [15]: 5.13%
viability, T/C [16]: 5.24%
viability, T/C [17]: 4.6%
viability, T/C (second compound 3.16 µM, first compound 0.00316 µM): 9.24%
viability, T/C (second compound 3.16 µM, first compound 0.01 µM): 8.35%
viability, T/C [18]: 6.17%
viability, T/C [19]: 4.91%
viability, T/C [20]: 4.85%
viability, T/C [21]: 4.78%
viability, T/C (second compound 10 µM, first compound 0.00316 µM): 6.46%
viability, T/C (second compound 10 µM, first compound 0.01 µM): 6.12%
viability, T/C [22]: 5.32%
viability, T/C [23]: 4.15%
viability, T/C [24]: 4.39%
viability, T/C [25]: 4.49%
